These results are taken from patent US5227384A, “5-substituted [4,5-c] imidazopyridines and pharmaceutical use thereof” (G. D. Searle & Co., priority 1991, dated 1993).

pIC50: −log10 of the molar value.

Test [1] concerns rabbit platelets. Kind of test: PAF-induced platelet secretion ([^3 H]serotonin). In kind it is cell-based. The conditions noted are these: Oryctolagus cuniculus, washed [^3 H]serotonin-labeled rabbit platelets, 60 sec after PAF, IC50 by inspection of dose-response curves. As for the experimental part: (§1) PAF-induced platelet aggregation and secretion: Washed, [^3 H]serotonin-labeled rabbit platelets were prepared as previously described in COX, C. P., J. LINDEN and S. I. SAID: VIP elevates platelet cyclic AMP (cAMP) levels and inhibits in vitro platelet activation induced by platelet-activating factor (PAF). Peptides 5:25-28, 1984, and maintained in an atmosphere of 5% CO2 at 37° C. until used in the bioassay. […] Aggregation was continuously monitored on a strip-chart recorder and recorded as the height of the tracing at 60 sec after the addition of PAF. Secretion of [^3 H]serotonin was measured in a sample of the platelet suspension removed at 60 sec after the addition of PAF. The percent inhibition of aggregation and secretion was calculated by comparing antagonist-treated platelets with the appropriate vehicle-treated control platelets. Each combination of antagonist and PAF was repeated 12-15 times, using several different platelet preparations. IC50 values were determined by inspection of the dose-response curves.

The test system of test [2] is rabbit platelets. Kind of test: PAF-induced platelet aggregation. The test is classed as cell-based. The conditions noted are these: Oryctolagus cuniculus, washed rabbit platelets, 60 sec after PAF, IC50 by inspection of dose-response curves. As for the experimental part: as §1
For test [3], the target named is PAF receptor (Human Platelet Membrane Receptors) (Homo sapiens, UniProt P25105).
Chain of PAF receptor (Human Platelet Membrane Receptors) (P25105 whole entry): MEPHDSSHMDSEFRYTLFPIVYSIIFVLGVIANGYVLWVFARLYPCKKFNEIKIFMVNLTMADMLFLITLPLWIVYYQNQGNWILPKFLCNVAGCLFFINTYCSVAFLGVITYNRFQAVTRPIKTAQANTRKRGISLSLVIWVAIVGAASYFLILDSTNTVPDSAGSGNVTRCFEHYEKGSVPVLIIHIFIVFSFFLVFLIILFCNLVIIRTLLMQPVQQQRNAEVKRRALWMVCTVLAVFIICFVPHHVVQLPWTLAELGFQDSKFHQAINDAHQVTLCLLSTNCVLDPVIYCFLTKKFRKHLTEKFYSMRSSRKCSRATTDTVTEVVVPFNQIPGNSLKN
Protocol: Inhibition of ^3 H-PAF Binding to Human Platelet Membrane Receptors
Receptor Preparation: Ten units of in-dated human packed platelets, each containing 45-65 ml platelet rich-plasma, were purchased from a commercial blood bank. Disposable plasticware was used throughout for receptor preparation. The units were pooled and a 1 ml aliquot was removed for determination of platelet concentration, using a Coulter Counter. The remaining platelet rich plasma was dispensed into 50 ml conical tubes and centrifuged at room temperature for 15 minutes at 3000 RPM (2300×g).Plasma was decanted and the platelets were resuspended in 35 ml of buffer 10 mM Trizma 7.0, 2 mM EDTA (dipotassium salt), and 150 mM KCl) and transferred to fresh tubes, which were centrifuged again as above. The platelets were washed 3 times, avoiding contaminating erythrocytes at the bottom of the pellets. Pellets were consolidated at each step, and by the last wash with EDTA/KCl buffer, most of the erythrocytes were in 1 tube. The pellets were resuspended in buffer containing 10 mM Trizma 7.0 with 10 mM CaCl2. Following centrifugation, the buffer was decanted and the pellets were resuspended in the CaCl2 buffer, avoiding erythrocyte contamination by recovering less than 100% of the platelet pellets. The resuspended platelets were dispensed in 8-10 ml aliquots into Corex tubes and disrupted by three cycles of freezing (dry ice/ethanol) and thawing (24° C.). The tubes were centrifuged at 40,000×g for 20 minutes at 4° C. Supernatants were decanted and each pellet was resuspended in 5-7 ml 10 mM Trizma 7.0. All resuspended pellets were pooled and aliquots of about 1200 ml were dispensed into 1.5 ml microfuge tubes and frozen at -70° C. Protein content was determined by a fluorescamine protein assay.
Assay Methods: Receptor Characterization--Each receptor preparation was evaluated to determine the number of receptor populations, the number of PAF receptor equivalents/mg protein and the dissociation constant (KD) for PAF binding. This required 2-3 experiments in which the protein concentration was held constant and the ^3 H-PAF ligand concentration was varied from approximately 0.10-2.5 nM and the data was analyzed by Scatchard methodology. Total incubation volume was 250 ml for these procedures and incubations were conducted at 24° C. for 30 minutes. For further experimentation, total incubation volumes are 500 ml. Protein and ligand concentrations were adjusted to give 0.075 nM receptor equivalents in the presence of 0.75 nM ^3 H-PAF. Each receptor preparation was then used to determine the dose--response displacement relationship of unlabeled PAF and the PAF antagonist, triazolam.
Assay Methods: Routine Assay of Compounds--The compounds were weighed precisely and solubilized in quantities of DMSO such that a 5 ml aliquot in the incubate would deliver the desired compound concentration. Compounds tested for the first time in this assay were evaluated at a concentration of 50 mM in the incubation medium. […] Triazolam was always included in each screening assay as a compound inhibition control. […] Nonspecific binding control solution was made by drying to completion about 26.2 ml unlabeled PAF under a stream of argon. PAF was resolubilized in 1000 ml DMSO. When delivered in a 5 ml aliquot, the final concentration of 1 mM PAF in the incubate exceeded by 1000-fold the concentration of ^3 H-PAF.
All buffers containing proteins were made at room temperature on the day of assay. Assay buffer was prepared by adding 125 mg human albumin to 25 ml of stock buffer (10 mM Trizma 7.4 with 20 mM CaCl2). Rinse buffer was made by adding 20 grams bovine serum albumin to i000 ml stock buffer. About 80 ml of rinse buffer was decanted into a small pyrex dish and used to soak 65 Whatman GF/C 2.5 cm glass filters. The remaining rinse buffer was poured into a repipet and placed into an ice bath along with the filters.

Turning to `CN(C(=O)c1ccc(CCn2ccc3ncnc-3c2)cc1)C1CCCCC1` [5-[2-[4-(N-methyl-N-cyclohexylcarboxamido)phenyl]ethyl]imidazo[4,5-c]pyridine], the pIC50 in the test with rabbit platelets [1] (1 min) was 5.00 to 6.00; with rabbit platelets [2] (1 min), 4.00 to 5.00.
For the compound `CC(C)N(C(=O)c1cccc(Cn2ccc3ncnc-3c2)c1)C1CCCCC1` [5-[3-(N-isopropyl-N-cyclohexylcarboxamido)benzyl]imidazo[4,5-c]pyridine], the figures for the pIC50 with rabbit platelets [1] (1 min) and in the test with rabbit platelets [2] (1 min) were 5.00 to 6.00 and 4.00 to 4.30, respectively.
For `CN(C(=O)c1cccc(Cn2ccc3ncnc-3c2)c1)C1CCCCC1` [5-[3-(N-methyl-N-cyclohexylcarboxamido)benzyl]imidazo[4,5-c]pyridine], the pIC50 in the test on rabbit platelets [1] (1 min) and in the test with rabbit platelets [2] (1 min) was 4.00 to 5.00 in each case.
For `CN(C(=O)c1ccc(CCCn2ccc3ncnc-3c2)cc1)C1CCCCC1` [5-[3-[4-(N-methyl-N-cyclohexylcarboxamido)phenyl]propyl]imidazo[4,5-c]pyridine], the pIC50 was 5.00 to 6.00 in the test on rabbit platelets [1] (1 min), 4.00 to 5.00 in the test with rabbit platelets [2] (1 min) and 4.21 in test [3].
For `COc1cc(C(=O)N(C2CCCC2)C2CCCC2)ccc1Cn1ccc2ncnc-2c1` [5-[4-(N,N-dicyclopentylcarboxamido)-2-methoxybenzyl]imidazo[4,5-c]pyridine], the pIC50 in the test with rabbit platelets [1] (1 min) is 8.00 to 9.00; in the test with rabbit platelets [2] (1 min) it was 7.00 to 8.00.
On to `Cc1nc2ccn(Cc3ccc(C(=O)N(C4CCCC4)C4CCCC4)cc3)cc-2n1` [5-[4-(N,N-dicyclopentylcarboxamido)benzyl]-2-methylimidazo[4,5-c]pyridine], for which the results for the pIC50 in the test with rabbit platelets [1] (1 min) and with rabbit platelets [2] (1 min) were 6.00 to 7.00 and 5.00 to 6.00, respectively.
Consider `Cc1c2ncnc-2ccn1Cc1ccc(C(=O)N(C2CCCC2)C2CCCC2)cc1` [5-[4-(N,N-dicyclopentylcarboxamido)benzyl]-4-methylimidazo[4,5-c]pyridine], for which the negative-log IC50 (pIC50) was 7.00 to 8.00 in the test on rabbit platelets [1] (1 min), 7.00 to 8.00 with rabbit platelets [2] (1 min) and 6.73 in test [3].
On to `O=C(c1ccc(Cn2ccc3ncnc-3c2)cc1)N(C1CCCC1)C1CCCC1` [5-[4-(N,N-dicyclopentylcarboxamido)benzyl]imidazo[4,5-c]pyridine], for which the pIC50 in the test with rabbit platelets [1] (1 min) is 8.00 to 9.00; with rabbit platelets [2] (1 min) it was 7.00 to 7.30; in test [3], 6.51.
Regarding `CC(C)N(C(=O)c1ccc(Cn2ccc3ncnc-3c2)cc1)C(C)C` [5-[4-(N,N-diisopropylcarboxamido)benzyl]imidazo[4,5-c]pyridine], the pIC50 in the test on rabbit platelets [2] (1 min) is 5.00 to 6.00; in test [3] it was 5.12.
Regarding `CN(C(=O)c1ccc(Cn2ccc3ncnc-3c2)c(F)c1)C1CCCCC1` [5-[4-(N,methyl-N-cyclohexylcarboxamido)-2-fluorobenzyl]imidazo[4,5-c]pyridine], the pIC50 in the test with rabbit platelets [1] (1 min) was 6.00 to 7.00; with rabbit platelets [2] (1 min), 5.00 to 6.00.
For the compound `CC(C)(C)CC(C)(C)NC(=O)c1ccc(Cn2ccc3ncnc-3c2)cc1` [5-[4-(N-2(2,4,4-trimethyl)pentylcarboxamide)benzyl]imidazo[4,5-c]pyridine], the pIC50 was 6.00 in the test with rabbit platelets [1], 5.00 in the test with rabbit platelets [2] and 4.65 in test [3].
`CN(C(=O)c1ccc(Cn2ccc3ncnc-3c2)cc1)C1CCC2CCCCC2C1` (centres unmarked) [5-[4-(N-2-decalyl-N-methylcarboxamido)benzyl]imidazo[4,5-c]pyridine]: the pIC50 is 6.00 with rabbit platelets [1] and 4.88 in test [3].
As for `CC1CCCC(N(C(=O)c2ccc(Cn3ccc4ncnc-4c3)cc2)C2CCCC2)C1` (centres unmarked) [5-[4-(N-3-methylcyclohexyl-N-cyclopentylcarboxamido)benzyl]imidazo[4,5-c]pyridine], the pIC50 was 8.00 to 9.00 in the test with rabbit platelets [1] (1 min), 7.00 to 8.00 in the test on rabbit platelets [2] (1 min) and 7.13 in test [3].
On to `CCC(CC)N(C(=O)c1ccc(Cn2ccc3ncnc-3c2)cc1)C1CCCCC1` [5-[4-(N-3-pentyl-N-cyclohexylcarboxamido)benzyl]imidazo[4,5-c]pyridine], for which the pIC50 in the test with rabbit platelets [1] (1 min) is 7.00 to 8.00; in the test with rabbit platelets [2] (1 min), 6.00 to 7.00.
For the compound `CC1CCC(N(C(=O)c2ccc(Cn3ccc4ncnc-4c3)cc2)C2CCCC2)CC1` (centres unmarked) [5-[4-(N-4-methylcyclohexyl-N-cyclopentylcarboxamido)benzyl]imidazo[4,5-c]pyridine], the pIC50 in the test on rabbit platelets [1] (1 min) was 7.00 to 8.00; with rabbit platelets [2] (1 min) it was 6.00 to 7.00; in test [3], 6.12.
In the case of `O=C(c1ccc(Cn2ccc3ncnc-3c2)cc1)N(C1CCCCC1)C1CCC1` [5-[4-(N-cyclobutyl-N-cyclohexylcarboxamido)benzyl]imidazo[4,5-c]pyridine], the figures for the pIC50 (in the test on rabbit platelets [1] (1 min); with rabbit platelets [2] (1 min); in test [3]) were 8.00 to 9.00, 7.00 to 8.00 and 7.70, respectively.
Consider `O=C(NC1CCCCC1)c1ccc(Cn2ccc3ncnc-3c2)cc1` [5-[4-(N-cyclohexylcarboxamido)benzyl]imidazo[4,5-c]pyridine], for which the pIC50 in the test with rabbit platelets [1] (1 min) was 6.00 to 7.00; in the test with rabbit platelets [2], 5.00; in test [3], 4.71.
In the case of `O=C(c1ccc(Cn2ccc3ncnc-3c2)c(F)c1)N(C1CCCCC1)C1CCCC1` [5-[4-(N-cyclopentyl-N-cyclohexylcarboxamido)-2-fluorobenzyl]imidazo[4,5-c]pyridine], the results for the pIC50 (with rabbit platelets [1] (1 min); with rabbit platelets [2] (1 min); in test [3]) were 8.00 to 9.00, 7.00 to 8.00 and 7.12, respectively.
Take `O=C(c1ccc(Cn2ccc3ncnc-3c2)cc1)N(C1CCCCC1)C1CCCC1` [5-[4-(N-cyclopentyl-N-cyclohexylcarboxamido)benzyl]imidazo[4,5-c]pyridine]: the pIC50 with rabbit platelets [1] (1 min) was 8.00 to 9.00; in the test on rabbit platelets [2] (1 min), 7.00 to 8.00; in test [3], 6.49.
Regarding `O=C(c1ccc(Cn2ccc3ncnc-3c2)cc1)N(C1CCCCC1)C1CC1` [5-[4-(N-cyclopropyl-N-cyclohexylcarboxamido)benzyl]imidazo[4,5-c]pyridine], the pIC50 in the test on rabbit platelets [1] (1 min) is 6.00 to 7.00; in test [3], 5.43.
Regarding `CCN(C(=O)c1ccc(Cn2ccc3ncnc-3c2)cc1)C1CCCCC1` [5-[4-(N-ethyl-N-cyclohexylcarboxamido)carboxamido)benzyl]imidazo[4,5-c]pyridine], the pIC50 in the test with rabbit platelets [1] was 6.00 to 7.00; in the test with rabbit platelets [2], 5.00 to 6.00; in test [3], 5.28.
As to `CC(C)CN(C(=O)c1ccc(Cn2ccc3ncnc-3c2)cc1)C1CCCCC1` [5-[4-(N-isobutyl-N-cyclohexylcarboxamido)benzyl]imidazo[4,5-c]pyridine], the negative logarithm of the IC50 (pIC50) in the test on rabbit platelets [1] is 7.00; in the test on rabbit platelets [2], 6.00.
For the compound `CC(C)N(C(=O)c1ccc(Cn2ccc3ncnc-3c2)c(F)c1)C1CCCCC1` [5-[4-(N-isopropyl-N-cyclohexylcarboxamido)-2-fluorobenzyl]imidazo[4,5-c]pyridine], the pIC50 in the test with rabbit platelets [1] (1 min) and in the test with rabbit platelets [2] (1 min) was 7.00 to 8.00 throughout.
As for `COc1cc(C(=O)N(C)C2CCCCC2)ccc1Cn1ccc2ncnc-2c1` [5-[4-(N-methyl-N-cyclohexylcarboxamido)-2-methoxybenzyl]imidazo[4,5-c]pyridine], the pIC50 was 6.00 to 7.00 in the test with rabbit platelets [1] (1 min) and 5.00 to 6.00 in the test on rabbit platelets [2] (1 min).
As for `CN(C(=O)c1ccc(Cn2ccc3ncnc-3c2)cc1)C1CCCCC1` [5-[4-(N-methyl-N-cyclohexylcarboxamido)benzyl]imidazo[4,5-c]pyridine], the figures for the pIC50 (in the test with rabbit platelets [1]; in the test with rabbit platelets [2] (1 min); in test [3]) were 6.14, 5.00 to 6.00 and 4.82, respectively.
As for `CCCCCCCCCCNC(=O)c1ccc(Cn2ccc3ncnc-3c2)cc1` [5-[4-(N-n-decylcarboxamido)benzyl]imidazo[4,5-c]pyridine], the pIC50 in the test with rabbit platelets [1] (1 min) was 6.00 to 7.00; with rabbit platelets [2] (1 min), 5.00 to 6.00; in test [3], 5.01.
For `CCCCCCCCCCCCNC(=O)c1ccc(Cn2ccc3ncnc-3c2)cc1` [5-[4-(N-n-dodecylcarboxamido)benzyl]imidazo[4,5-c]pyridine], the pIC50 with rabbit platelets [2] (1 min) is 6.00 to 7.00; in test [3], 4.92.
For `CCCCCCCCNC(=O)c1ccc(Cn2ccc3ncnc-3c2)cc1` [5-[4-(N-n-octylcarboxamido)benzyl]imidazo[4,5-c]pyridine], the pIC50 with rabbit platelets [1] (1 min) was 6.00 to 7.00; in the test on rabbit platelets [2] (1 min), 5.00 to 6.00; in test [3], 4.96.
As for `CCC(C)N(C(=O)c1ccc(Cn2ccc3ncnc-3c2)cc1)C1CCCCC1` (centres unmarked) [5-[4-(N-sec.butyl-N-cyclohexylcarboxamido)benzyl]imidazo[4,5-c]pyridine], the pIC50 in the test on rabbit platelets [1] (1 min) was 8.00 to 9.00; with rabbit platelets [2] (1 min), 7.00 to 7.30.
As for `CC(C)(C)N(C(=O)c1ccc(Cn2ccc3ncnc-3c2)cc1)C1CCCCC1` [5-[4-(N-tert.butyl-N-cyclohexylcarboxamido)benzyl]imidazo[4,5-c]pyridine], the pIC50 in the test on rabbit platelets [1] (1 min) was 8.00 to 9.00; in the test with rabbit platelets [2] (1 min) it was 7.00 to 8.00.
On to `COc1cc(C(=O)N(C2CCCCC2)C2CCCC2)ccc1Cn1ccc2ncnc-2c1` [5-[4{-(N-cyclopentyl,N-cyclohexyl)carboxamido}-2-methoxybenzyl]imidazo[4,5-c]-pyridine], for which the pIC50 is 8.00 to 9.00 with rabbit platelets [1] (1 min) and 8.00 in the test with rabbit platelets [2].
As for `Cc1cc(C(=O)N(C2CCCCC2)C2CCCC2)ccc1Cn1ccc2ncnc-2c1` [N-cyclohexyl-N-cyclopentyl-4-(5H)-imidazo[4,5-c]pyridin-5-ylmethyl)-3-methylbenzamide], the pIC50 is 8.70 with rabbit platelets [1] and 7.74 in test [3].
Take `COc1cc(Cn2ccc3ncnc-3c2)ccc1C(=O)N(C1CCCC1)C1CC(C)CC(C)C1` (centres unmarked) [N-cyclopentyl-N-(3,5-dimethylcyclohexyl)-4-(5H-imidazo[4,5-c]pyridin-5-ylmethyl)-2-methoxybenzamide]: the pIC50 (in the test on rabbit platelets [1]; in test [3]) was 9.00 each time.
